Converted amounts (≈) assume the structure as drawn.
Tested on: Mycobacterium tuberculosis
Assay: Antituberculosis activity against isoniazid-resistant Mycobacterium tuberculosis CN-40 by microdilution method
Assay type: functional

Q: For `CCOC(=O)c1[nH]c2ccccc2c1/C=N\NC(=O)c1ccncc1`, which MIC is on record?
A: 2 µg/mL (≈ 5.95 µM)

Q: With `CCOC(=O)c1[nH]c2ccccc2c1CNNC(=O)c1ccncc1` as the compound, how does the MIC read?
A: 10 µg/mL (≈ 29.6 µM)

Q: How did the MIC turn out when `O=C(N/N=C\c1c[nH]c2ccccc12)c1ccncc1` was run?
A: 10 µg/mL (≈ 37.8 µM)

Q: For `CCOC(=O)c1[nH]c2ccc(Cl)cc2c1/C=N\NC(=O)c1ccncc1`, which MIC is on record?
A: 2 µg/mL (≈ 5.39 µM)

Q: How did the MIC turn out when `CCOC(=O)c1[nH]c2ccc(C)cc2c1/C=N/NC(N)=S` was run?
A: 2 µg/mL (≈ 6.57 µM)

Q: With `CCOC(=O)c1[nH]c2ccc(Cl)cc2c1CNNC(=O)c1ccncc1` as the compound, how does the MIC read?
A: 10 µg/mL (≈ 26.8 µM)

Q: How did the MIC turn out when `Cc1ccc2[nH]c(C(=O)O)c(/C=N\NC(=O)c3ccncc3)c2c1` was run?
A: 4 µg/mL (≈ 12.4 µM)

Q: `CC(=O)n1cc(NNC(=O)c2ccncc2)c2ccccc21` was tested. Which MIC did it give?
A: 2 µg/mL (≈ 6.8 µM)

Q: With `CCOC(=O)c1[nH]c2ccccc2c1CNNC(=O)c1cc[n+]([O-])cc1` as the compound, how does the MIC read?
A: 10 µg/mL (≈ 28.2 µM)

Q: With `CCOC(=O)c1[nH]c2ccc(C)cc2c1/C=N\NC(=O)c1ccncc1` as the compound, how does the MIC read?
A: 2 µg/mL (≈ 5.71 µM)

Q: For `NNC(=O)c1ccc[n+]([O-])c1`, which MIC is on record?
A: > 20 µg/mL

Q: Which MIC does the source give for `NNC(=O)c1ccncc1` [ISONIAZID] here?
A: 20 µg/mL (≈ 146 µM)

Q: How did the MIC turn out when `CCOC(=O)c1[nH]c2ccccc2c1/C=N\NC(=O)c1cc[n+]([O-])cc1` was run?
A: 10 µg/mL (≈ 28.4 µM)

Q: How did the MIC turn out when `O=C(NNCc1c[nH]c2ccccc12)c1ccncc1` was run?
A: 10 µg/mL (≈ 37.6 µM)

Q: With `O=C(N/N=C\c1c[nH]c2ccccc12)c1cc[n+]([O-])cc1` as the compound, how does the MIC read?
A: 10 µg/mL (≈ 35.7 µM)

Q: How did the MIC turn out when `CC(=O)n1cc(NNC(=O)c2cc[n+]([O-])cc2)c2ccccc21` was run?
A: 10 µg/mL (≈ 32.2 µM)

Q: How did the MIC turn out when `NNC(=O)c1cccnc1` [NICOTINIC ACID HYDRAZIDE] was run?
A: > 20 µg/mL

Q: For `CCOC(=O)c1[nH]c2ccc(C)cc2c1CNNC(=O)c1ccncc1`, which MIC is on record?
A: 10 µg/mL (≈ 28.4 µM)

Q: How did the MIC turn out when `NNC(=O)c1cc[n+]([O-])cc1` was run?
A: > 20 µg/mL

Q: For `CC(=O)n1cc(NNC(=O)c2ccc[n+]([O-])c2)c2ccccc21`, which MIC is on record?
A: 10 µg/mL (≈ 32.2 µM)
